Numbers after ± are expanded uncertainties.

The series can be described thus: wn = mass fraction of the nth substance listed. Particulars: 298.15 K, 101 kPa, Liquid; for viscosity: Capillary tube (Ostwald / Ubbelohde) method; for mass density: Pycnometric method.

As for `C1CCOC1` [tetrahydrofuran] + C1COCCO1, under “w2 = 0”, the viscosity (as a rule, the internal friction of a fluid under shear) worked out at 0.463 ± 0.013 mPa·s and the mass density (in general, the mass of a sample divided by its volume) was determined as 880.7 ± 4.4 kg/m3.
Turning to `C1COCCO1` [1,4-dioxane] + C1CCOC1, the viscosity turned out to be 0.49 ± 0.014 mPa·s (w1 = 0.1), 0.51 ± 0.014 mPa·s (w1 = 0.2), 0.53 ± 0.015 mPa·s (w1 = 0.3) and 1.2 ± 0.031 mPa·s (w1 = 1). For the same compound, the mass density is 894.1 ± 4.5 kg/m3 (w1 = 0.1), 907.1 ± 4.6 kg/m3 (w1 = 0.2), 919 ± 4.8 kg/m3 (w1 = 0.3) and 1030.5 ± 6 kg/m3 (w1 = 1).

Values taken from the NIST ThermoML archive (doi:10.1021/je7004787).
